# Reference: PubChem BioAssay (NCI)
#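 Step 1: Grow cells in 96-well plates. Step 2: Expose to compound for 48 hours at 5 concentrations. Step 3: Interpolate endpoints linearly; if unreached, use highest concentration. GI50 marks 50% less growth. Definition used: TGI = concentration required for complete inhibition of growth.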
# Key:
# Assay in all cases: inhibition of tumour cell growth, NCI panel, 48 h
# 786-0 renal = tested on: 786-0 renal
# A498 renal = tested on: A498 renal
# A549 NSCLC = tested on: A549 NSCLC
# ACHN renal = tested on: ACHN renal
# BT-549 breast = tested on: BT-549 breast
# CAKI-1 renal = tested on: CAKI-1 renal
# CCRF-CEM leukemia = tested on: CCRF-CEM leukemia
# COLO 205 colon = tested on: COLO 205 colon
# DU-145 prostate = tested on: DU-145 prostate
# EKVX NSCLC = tested on: EKVX NSCLC
# HCC-2998 colon = tested on: HCC-2998 colon
# HCT-116 colon = tested on: HCT-116 colon
# HCT-15 colon = tested on: HCT-15 colon
# HL-60(TB) leukemia = tested on: HL-60(TB) leukemia
# HOP-62 NSCLC = tested on: HOP-62 NSCLC
# HOP-92 NSCLC = tested on: HOP-92 NSCLC
# HS 578T breast = tested on: HS 578T breast
# HT29 colon = tested on: HT29 colon
# IGROV1 ovarian = tested on: IGROV1 ovarian
# K-562 leukemia = tested on: K-562 leukemia
# KM12 colon = tested on: KM12 colon
# MALME-3M melanoma = tested on: MALME-3M melanoma
# MCF7 breast = tested on: MCF7 breast
# MDA-MB-231 breast = tested on: MDA-MB-231 breast
# MDA-MB-435 = tested on: MDA-MB-435
# MOLT-4 leukemia = tested on: MOLT-4 leukemia
# NCI-H226 lung = tested on: NCI-H226 lung
# NCI-H460 lung = tested on: NCI-H460 lung
# NCI-H522 lung = tested on: NCI-H522 lung
# NCI/ADR-RES ovarian = tested on: NCI/ADR-RES ovarian
# OVCAR-3 ovarian = tested on: OVCAR-3 ovarian
# OVCAR-4 ovarian = tested on: OVCAR-4 ovarian
# OVCAR-5 ovarian = tested on: OVCAR-5 ovarian
# OVCAR-8 ovarian = tested on: OVCAR-8 ovarian
# PC-3 prostate = tested on: PC-3 prostate
# RPMI-8226 leukemia = tested on: RPMI-8226 leukemia
# SF-268 CNS = tested on: SF-268 CNS
# SF-295 CNS = tested on: SF-295 CNS
# SF-539 CNS = tested on: SF-539 CNS
# SK-MEL-2 melanoma = tested on: SK-MEL-2 melanoma
# SK-MEL-28 melanoma = tested on: SK-MEL-28 melanoma
# SK-MEL-5 melanoma = tested on: SK-MEL-5 melanoma
# SK-OV-3 ovarian = tested on: SK-OV-3 ovarian
# SN12C renal = tested on: SN12C renal
# SNB-19 CNS = tested on: SNB-19 CNS
# SNB-75 CNS = tested on: SNB-75 CNS
# SR leukemia = tested on: SR leukemia
# SW-620 colon = tested on: SW-620 colon
# T-47D breast = tested on: T-47D breast
# TK-10 renal = tested on: TK-10 renal
# U251 CNS = tested on: U251 CNS
# UACC-257 melanoma = tested on: UACC-257 melanoma
# UACC-62 melanoma = tested on: UACC-62 melanoma
smiles,measurement,setting,value
Fc1ccc(-c2cc3nc(C(Cl)Cl)nc(-c4ccc(Cl)cc4)n3n2)cc1,GI50,786-0 renal,23.5 µM
same,TGI,786-0 renal,> 100 µM
same,GI50,A498 renal,4.95 µM
same,TGI,A498 renal,53.1 µM
same,GI50,A549 NSCLC,1.8 µM
same,TGI,A549 NSCLC,4.53 µM
same,GI50,ACHN renal,1.6 µM
same,TGI,ACHN renal,4.03 µM
same,GI50,BT-549 breast,94.7 µM
same,TGI,BT-549 breast,> 100 µM
same,GI50,CAKI-1 renal,2.96 µM
same,TGI,CAKI-1 renal,> 100 µM
same,GI50,CCRF-CEM leukemia,> 100 µM
same,TGI,CCRF-CEM leukemia,> 100 µM
same,GI50,COLO 205 colon,1.84 µM
same,TGI,COLO 205 colon,4.05 µM
same,GI50,DU-145 prostate,1.91 µM
same,TGI,DU-145 prostate,5.84 µM
same,GI50,EKVX NSCLC,2.94 µM
same,TGI,EKVX NSCLC,14.1 µM
same,GI50,HCC-2998 colon,1.54 µM
same,TGI,HCC-2998 colon,3.14 µM
same,GI50,HCT-116 colon,3.3 µM
same,TGI,HCT-116 colon,> 100 µM
same,GI50,HCT-15 colon,2.5 µM
same,TGI,HCT-15 colon,> 100 µM
same,GI50,HL-60(TB) leukemia,2 µM
same,TGI,HL-60(TB) leukemia,> 100 µM
same,GI50,HOP-62 NSCLC,2.53 µM
same,TGI,HOP-62 NSCLC,> 100 µM
same,GI50,HOP-92 NSCLC,4.66 µM
same,TGI,HOP-92 NSCLC,> 100 µM
same,GI50,HS 578T breast,> 100 µM
same,TGI,HS 578T breast,> 100 µM
same,GI50,HT29 colon,1.66 µM
same,TGI,HT29 colon,5.36 µM
same,GI50,IGROV1 ovarian,> 100 µM
same,TGI,IGROV1 ovarian,> 100 µM
same,GI50,K-562 leukemia,4.39 µM
same,TGI,K-562 leukemia,> 100 µM
same,GI50,KM12 colon,3.01 µM
same,TGI,KM12 colon,> 100 µM
same,GI50,MALME-3M melanoma,> 100 µM
same,TGI,MALME-3M melanoma,> 100 µM
same,GI50,MCF7 breast,2.45 µM
same,TGI,MCF7 breast,> 100 µM
same,GI50,MDA-MB-231 breast,4.08 µM
same,TGI,MDA-MB-231 breast,> 100 µM
same,GI50,MDA-MB-435,6.6 µM
same,TGI,MDA-MB-435,> 100 µM
same,GI50,MOLT-4 leukemia,4.25 µM
same,TGI,MOLT-4 leukemia,> 100 µM
same,GI50,NCI-H226 lung,> 100 µM
same,TGI,NCI-H226 lung,> 100 µM
same,GI50,NCI-H460 lung,1.76 µM
same,TGI,NCI-H460 lung,4.69 µM
same,GI50,NCI-H522 lung,3.72 µM
same,TGI,NCI-H522 lung,> 100 µM
same,GI50,NCI/ADR-RES ovarian,3.32 µM
same,TGI,NCI/ADR-RES ovarian,> 100 µM
same,GI50,OVCAR-3 ovarian,2.02 µM
same,TGI,OVCAR-3 ovarian,4.5 µM
same,GI50,OVCAR-4 ovarian,3.11 µM
same,TGI,OVCAR-4 ovarian,> 100 µM
same,GI50,OVCAR-5 ovarian,3.92 µM
same,TGI,OVCAR-5 ovarian,> 100 µM
same,GI50,OVCAR-8 ovarian,4.03 µM
same,TGI,OVCAR-8 ovarian,> 100 µM
same,GI50,PC-3 prostate,3.96 µM
same,TGI,PC-3 prostate,> 100 µM
same,GI50,RPMI-8226 leukemia,4.55 µM
same,TGI,RPMI-8226 leukemia,> 100 µM
same,GI50,SF-268 CNS,5.09 µM
same,TGI,SF-268 CNS,> 100 µM
same,GI50,SF-295 CNS,3.04 µM
same,TGI,SF-295 CNS,9.71 µM
same,GI50,SF-539 CNS,11.3 µM
same,TGI,SF-539 CNS,> 100 µM
same,GI50,SK-MEL-2 melanoma,> 100 µM
same,TGI,SK-MEL-2 melanoma,> 100 µM
same,GI50,SK-MEL-28 melanoma,8.28 µM
same,TGI,SK-MEL-28 melanoma,> 100 µM
same,GI50,SK-MEL-5 melanoma,> 100 µM
same,TGI,SK-MEL-5 melanoma,> 100 µM
same,GI50,SK-OV-3 ovarian,3.23 µM
same,TGI,SK-OV-3 ovarian,> 100 µM
same,GI50,SN12C renal,> 100 µM
same,TGI,SN12C renal,> 100 µM
same,GI50,SNB-19 CNS,2.96 µM
same,TGI,SNB-19 CNS,> 100 µM
same,GI50,SNB-75 CNS,> 100 µM
same,TGI,SNB-75 CNS,> 100 µM
same,GI50,SR leukemia,3.01 µM
same,TGI,SR leukemia,> 100 µM
same,GI50,SW-620 colon,2.91 µM
same,TGI,SW-620 colon,> 100 µM
same,GI50,T-47D breast,3.91 µM
same,TGI,T-47D breast,> 100 µM
same,GI50,TK-10 renal,7.6 µM
same,TGI,TK-10 renal,> 100 µM
same,GI50,U251 CNS,1.79 µM
same,TGI,U251 CNS,4.36 µM
same,GI50,UACC-257 melanoma,> 100 µM
same,TGI,UACC-257 melanoma,> 100 µM
same,GI50,UACC-62 melanoma,> 100 µM
same,TGI,UACC-62 melanoma,> 100 µM
